# Patent US20140369979A1, “VECTOR SIMULTANEOUSLY EXPRESSING DODECAMERIC TRAIL AND HSV-TK SUICIDE GENES, AND ANTICANCER STEM CELL THERAPEUTIC AGENT USING SAME” (POSTECH ACADEMY-INDUSTRY FOUNDATION, priority 2012, published 2014)
# Legend:
# MSC/dTRAIL-TK = assay: Survival rate of MSC/dTRAIL-TK after GCV treatment (MTS method); format: cell-based, rat; settings: 100 μM GCV, one week after treatment
# Procedure: In order to examine the suicide induction effect of MSC/dTRAIL-TK by GCV treatment, cells were treated with 10, 30, and 100 μM of GCV. From 1 day after GCV treatment, survival rate of MSC/dTRAIL-TK was examined by an MTS method every other day.
# [1] = system: TRAIL expression by MSC/dTRAIL-TK; assay: TRAIL expression of MSC/dTRAIL-TK after GCV treatment (ELISA of culture broth); format: cell-based, rat; settings: GCV 10, 30, 100 μM, culture broth every 24 hours
# Procedure: Next, in order to examine whether TRAIL expression is reduced by MSC/dTRAIL-TK apoptosis, GCV was treated at the same concentrations, and the culture broth was collected every 24 hours to examine TRAIL expression by ELISA (enzyme-linked immunosorbent assay).
smiles,measurement,setting,value
"Nc1nc(O)c2ncn(COC(CO)CO)c2n1 [GCV, ganciclovir]",survival rate of MSC/dTRAIL-TK,MSC/dTRAIL-TK,almost all cells were eliminated
same,TRAIL expression,[1],TRAIL expression was reduced
